Reference: patent publication US11603377B2, “MTORC1 modulators and uses thereof” (Aeovian Pharmaceuticals, Inc., priority 2020, dated 2023)

What was measured:
FKBP51 = FKBP51 (Homo sapiens (Human), UniProt Q13451); experiment: SPR assay to determine binding affinity to FKBP51 (direct binding); conditions: immobilized biotinylated avi-FKBP51
Description: Example 29: SPR Assay to Determine Binding Affinity to FKBP51
Biotinylated avi-FKBP51 was immobilized on a streptavidin chip (Cytiva Series S SA) using a Biacore 8K or 8 k+ (Cytiva). To achieve an immobilization level of 2000 RU, 3 μg/ml biotinylated avi-FKBP51 were injected for 360 sec at a flow rate of 10 μl/min. Rapalogs were diluted in DMSO to 100× working concentration. Each Rapalog was 100-fold diluted in 50 mM HEPES pH 7.5, 150 mM NaCl, 2 mM MgCl2, 1 mM DTT, 0.05% Tween-20 and a serial dilution prepared (8 concentrations, 3-fold dilutions, 0.5-1000 nM). […] The compound dilutions were then injected at 100 uL/min for 120 seconds contact time and with 3600 seconds dissociation time with increasing concentrations. 50 mM HEPES pH 7.5, 150 mM NaCl, 2 mM MgCl2, 1 mM DTT, 0.05% Tween-20, 1% DMSO was used as running buffer. Multi-cycle kinetics data were fit to a 1:1 binding model to measure the association rate ka (1/Ms), the dissociation rate kd (1/s) and the affinity Kd (M).

mTORC1 = mTORC1 (Homo sapiens (Human), UniProt P42345+P62942); experiment: mTORC1 inhibition, AlphaLISA of Phospho-p70 S6 kinase (p70S6K pT389) in PC-3 cells; format: cell-based; conditions: inhibition of p70S6K pT389 levels
[1] = target: FKBP51 / FRB ternary complex (Homo sapiens (Human), UniProt P42345+Q13451); experiment: SPR assay to characterize ternary complex formation with FKBP51 (FRB binding to rapalog-saturated FKBP51); conditions: FRB dilutions with 100 nM rapalog on immobilized FKBP51
Description: Example 31: SPR Assay to Characterize Ternary Complex Formation with FKBP51
(§1) Biotinylated avi-FKBP51 was immobilized on a streptavidin chip (Cytiva Series S SA) using a Biacore 8K or 8 k+ (Cytiva). To achieve an immobilization level of 200 RU, 0.6 μg/ml biotinylated avi-FKBP51 were injected for 150 sec at a flow rate of 10 μl/min. Serial dilution of FRB was prepared (12 concentrations, 3-fold dilutions, 0.00011-20 μM) and supplemented with 100 nM of rapalog. A-B-A injection mode was used to ensure saturation immobilized […] with respective rapalog. 100 nM solution of the respective rapalog was injected before FRB injection for 120 sec and during dissociation for 420 sec. The FRB dilutions were then injected 120 seconds contact time with increasing concentrations. […] 50 mM HEPES pH 7.5, 150 mM NaCl, 2 mM MgCl2, 1 mM DTT, 0.05% Tween-20, 1% DMSO was used as running buffer at a flow rate of 30 μl/min. The multi-cycle kinetics data were fit to a 1:1 binding model to measure the association rate ka (1/Ms), the dissociation rate kd (1/s) and the affinity Kd (M). In case of fast association and dissociation, steady state affinity analysis following the law of mass action was used to determine the affinity Kd (M).

[2] = target: FKBP12 / FRB ternary complex (Homo sapiens (Human), UniProt P42345+P62942); experiment: SPR assay to characterize ternary complex formation with FKBP12 (FRB binding to rapalog-saturated FKBP12); conditions: FRB dilutions with 100 nM rapalog on immobilized FKBP12
Description: Example 30: SPR Assay to Characterize Ternary Complex Formation with FKBP12
as §1, with “Biotinylated avi-FKBP12” for “Biotinylated avi-FKBP51”, “of 100” for “of 200”, “RU, 0.3” for “RU, 0.6”, “biotinylated avi-FKBP12” for “biotinylated avi-FKBP51”, “for 80” for “for 150”

FKBP12 = FKBP12 (Homo sapiens (Human), UniProt P62942); experiment: SPR assay to determine binding affinity to FKBP12 (direct binding); conditions: immobilized biotinylated avi-FKBP12
Chain of FKBP12 (P62942 whole entry): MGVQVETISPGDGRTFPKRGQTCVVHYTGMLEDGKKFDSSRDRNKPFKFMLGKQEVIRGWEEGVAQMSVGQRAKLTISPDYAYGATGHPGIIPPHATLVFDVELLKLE
Description: SPR Assay to Determine Binding Affinity to FKBP12.
Biotinylated avi-FKBP12 was immobilized on a streptavidin chip (Cytiva Series S SA) using a Biacore 8K or 8 k+ (Cytiva). To achieve an immobilization level of 1000 RU, 2 μg/ml biotinylated avi-FKBP12 were injected for 100 sec at a flow rate of 10 μl/min. Rapalogs were diluted in DMSO to 100× working concentration. Each Rapalog was 100-fold diluted in 50 mM HEPES pH 7.5, 150 mM NaCl, 2 mM MgCl2, 1 mM DTT, 0.05% Tween-20 and a serial dilution prepared (9 concentrations, 3-fold dilutions, 0.08-500 nM). […] The compound dilutions were then injected at 100 uL/min for 120 seconds contact time in sequence with increasing concentrations. Dissociation was monitored for 3600 seconds. 50 mM HEPES pH 7.5, 150 mM NaCl, 2 mM MgCl2, 1 mM DTT, 0.05% Tween-20, 1% DMSO was used as running buffer. The single-cycle kinetics data were fit to a 1:1 binding model to measure the association rate ka (1/Ms), the dissociation rate kd (1/s) and the affinity Kd (M).

mTORC2 = mTORC2 (Homo sapiens (Human), UniProt P42345+P62942); experiment: mTORC2 inhibition, AlphaLISA of Phospho-AKT (pAKT pS473) in PC3 cells; format: cell-based
Description: Example 32: mTORC1 Inhibition, mTORC2 Inhibition, Cell Lysis, AlphaLISA Experiments, and Data Analysis
mTORC2 inhibition was determined via analysis of phosphorylation level of Phospho-AKT (pAKT pS473) with the corresponding AlphaLISA kit (PerkinElmer, Alpha SF Ultra™ Multiplex p-AKT1/2/3(Ser473)/Total AKT1). PC3 cells were plated on 96 well plates in assay medium (DMEM: Ham's F12, basic (CLS Cell Lines Service GmbH, Cat #820400a), supplemented with additional 10% FBS at 1.20E+06 cells/mL and incubated over-night at 37° C., 5% CO2. On the following day, cells were treated with assay medium (10% FBS) containing increasing compound concentrations (12 points at 3-fold dilutions) and incubated for 6 hours at 37° C., 5% CO2. Thereafter, medium was aspirated and cells were rinsed with PBS. In the following, cells were treated with compound dilutions in starvation medium (DMEM: Ham's F12, basic; without FBS) for further 18 h at 37° C., 5% CO2. Then, immediately prior to cell lysis, cells were treated with 12% FBS for 15 min.
After performing experiments according to mTORC1 and mTORC2 protocols, cells were harvested in lysis buffer supplied with the AlphaLISA kits, additionally enriched with Roche cOmplete™ Protease Inhibitor Cocktail (Cat #CO-RO). Thus, cells were lysed using 50 μL of the lysis buffer and incubated for 60 min at 4° C. while shaking. After centrifugation at 4000 rpm for 5 min, experiments were performed according to the AlphaLISA manufacturer's protocol.
Ten microliters of cell lysates were mixed with the acceptor mix. After incubation for 2 h at room temperature, the donor mix was added. After additional incubation at room temperature for 2 hours, AlphaLISA signal was read on PHERAstar® FSX (BMG Labtech) with AlphaPLEX module.
EC50 values were calculated by ExcelFit standard algorithm.

Chain of FKBP51 (Q13451 whole entry): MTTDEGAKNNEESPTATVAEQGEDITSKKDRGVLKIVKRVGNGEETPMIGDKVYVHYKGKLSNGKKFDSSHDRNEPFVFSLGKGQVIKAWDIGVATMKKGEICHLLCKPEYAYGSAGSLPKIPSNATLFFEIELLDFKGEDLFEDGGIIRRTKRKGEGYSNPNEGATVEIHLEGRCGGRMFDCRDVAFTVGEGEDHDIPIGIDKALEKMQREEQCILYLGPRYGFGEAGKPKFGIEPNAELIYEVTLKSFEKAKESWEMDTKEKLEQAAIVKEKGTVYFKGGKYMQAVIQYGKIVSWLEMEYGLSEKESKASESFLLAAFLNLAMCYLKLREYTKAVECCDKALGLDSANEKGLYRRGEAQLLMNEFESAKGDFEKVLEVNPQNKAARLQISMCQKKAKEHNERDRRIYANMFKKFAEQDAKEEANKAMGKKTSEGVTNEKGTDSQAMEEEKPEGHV

Structure (SMILES)	Kd (FKBP51) [nM]	IC50 (mTORC1) [nM]	Kd [1] [nM]	Kd [2] [nM]	Kd (FKBP12) [nM]	mTORC2 % inhibition at 1 uM (mTORC2)
COC1CC(CC(C)C2CC(=O)C(C)C=C(C)C(O)C(OC)C(=O)C(C)CC(C)C=CC=CC=C(C)C(OCC3CC(F)(F)C3)CC3CCC(C)C(O)(O3)C(=O)C(=O)N3CCCCC3C(=O)O2)CCC1O (stereo not drawn) [Compound 41]	> 100	> 0.8	> 800	> 800	0.3 to 1	A (A ≤20% inhibition at 1 micro Molar (uM))
COCCOCCS(=O)(=O)N[C@H]1C[C@@H]2CC[C@@H](C)[C@@](O)(O2)C(=O)C(=O)N2CCCC[C@H]2C(=O)O[C@H]([C@H](C)C[C@@H]2CC[C@@H](O)[C@H](OC)C2)CC(=O)[C@H](C)/C=C(\C)[C@@H](O)[C@@H](OC)C(=O)[C@H](C)C[C@H](C)/C=C/C=C/C=C/1C [Compound 9]	< 10	< 0.1	< 300	< 300	< 0.3	C (C≥40% and less than 60% inhibition at 1 uM)
COC1C(=O)C(C)CC/C=C/C=C/C=C(\C)[C@@H](NS(=O)(=O)CCO)C[C@H]2CC[C@H](C)[C@](O)(O2)C(=O)C(=O)N(C)C(C)C(=O)OC([C@H](C)C[C@@H]2CC[C@@H](OC3CC3)[C@H](OC)C2)CC(=O)C(C)/C=C(\C)C1O (stereo partly drawn) [Compound 11]	10 to 100	0.1 to 0.8	300 to 800	300 to 800	0.3 to 1	A (A ≤20% inhibition at 1 micro Molar (uM))
COC1CC(CC(C)C2CC(=O)C(C)C=C(C)C(O)C(OC)C(=O)C(C)CC(C)C=CC=CC=C(C)C(OC3CCOCC3)CC3CCC(C)C(O)(O3)C(=O)C(=O)N3CCCCC3C(=O)O2)CCC1O (stereo not drawn) [Compound 33]	10 to 100	> 0.8	> 800	> 800	< 0.3	A (A ≤20% inhibition at 1 micro Molar (uM))
CO[C@@H]1C[C@H](C[C@@H](C)[C@@H]2CC(=O)[C@H](C)/C=C(\C)[C@@H](O)[C@@H](OC)C(=O)[C@H](C)C[C@H](C)/C=C/C=C/C=C(\C)[C@H](OCCCO)C[C@@H]3CC[C@@H](C)[C@@](O)(O3)C(=O)C(=O)N3CCCC[C@H]3C(=O)O2)CC[C@H]1OCCCS(C)(=O)=O [Compound 69]	10 to 100	0.1 to 0.8	> 800	300 to 800	0.3 to 1	B (B>20% and less than 40% inhibition at 1 uM)
CCOC(=O)COC1CCC(CC(C)C2CC(=O)C(C)C=C(C)C(O)C(OC)C(=O)C(C)CC(C)C=CC=CC=C(C)C(OC3CC3)CC3CCC(C)C(O)(O3)C(=O)C(=O)N3CCCCC3C(=O)O2)CC1OC (stereo not drawn) [Compound 48]	> 100	> 0.8	> 800	300 to 800	> 1	A (A ≤20% inhibition at 1 micro Molar (uM))
CCOC(=O)COC1CCC(CC(C)C2CC(=O)C(C)C=C(C)C(O)C(OC)C(=O)C(C)CC(C)C=CC=CC=C(C)C(OCC3CC3)CC3CCC(C)C(O)(O3)C(=O)C(=O)N3CCCCC3C(=O)O2)CC1OC (stereo not drawn) [Compound 50]	> 100	> 0.8	> 800	300 to 800	> 1	B (B>20% and less than 40% inhibition at 1 uM)
COC1CC(CC(C)C2CC(=O)C(C)C=C(C)C(O)C(OC)C(=O)C(C)CC(C)C=CC=CC=C(C)C(OCCC3COC3)CC3CCC(C)C(O)(O3)C(=O)C(=O)N3CCCCC3C(=O)O2)CCC1OCCO (stereo not drawn) [Compound 38]	10 to 100	0.1 to 0.8	> 800	> 800	0.3 to 1	A (A ≤20% inhibition at 1 micro Molar (uM))
COC1CC(CC(C)C2CC(=O)C(C)C=C(C)C(O)C(OC)C(=O)C(C)CC(C)C=CC=CC=C(C)C(OC3CC3)CC3CCC(C)C(O)(O3)C(=O)C(=O)N3CCCCC3C(=O)O2)CCC1OCCO (stereo not drawn) [Compound 47]	> 100	> 0.8	> 800	< 300	> 1	B (B>20% and less than 40% inhibition at 1 uM)
COCCOCCS(=O)(=O)NC1CC2CCC(C)C(O)(O2)C(=O)C(=O)N2CCCCC2C(=O)OC(C(C)CC2CCC(OCCCO)C(OC)C2)CC(=O)C(C)C=C(C)C(O)C(OC)C(=O)C(C)CC(C)C=CC=CC=C1C (stereo not drawn) [Compound 2]	10 to 100	< 0.1	300 to 800	< 300	< 0.3	A (A ≤20% inhibition at 1 micro Molar (uM))
COCCOCCOCCOC1CC2CCC(C)C(O)(O2)C(=O)C(=O)N2CCCCC2C(=O)OC(C(C)CC2CCC(OCCCS(C)(=O)=O)C(OC)C2)CC(=O)C(C)C=C(C)C(O)C(OC)C(=O)C(C)CC(C)C=CC=CC=C1C (mixture of isomers) [Compound 66]	10 to 100	0.1 to 0.8	> 800	> 800	0.3 to 1	A (A ≤20% inhibition at 1 micro Molar (uM))
